Where a chain is given by its changes, count along the chain named.
Assays:
[1] = molecular target: T1, AtPPO1 S305L L361D V365M (SEQ ID NO.133) (Arabidopsis thaliana, UniProt P55826, S305L/V365M/Y361D); experiment: fluorescent Protoporphyrinogen Oxidase assay, crude extract; type: biochemical; conditions: read-out: percentage inhibition
T1 sequence (P55826 35-537 S305L/Y361D/V365M): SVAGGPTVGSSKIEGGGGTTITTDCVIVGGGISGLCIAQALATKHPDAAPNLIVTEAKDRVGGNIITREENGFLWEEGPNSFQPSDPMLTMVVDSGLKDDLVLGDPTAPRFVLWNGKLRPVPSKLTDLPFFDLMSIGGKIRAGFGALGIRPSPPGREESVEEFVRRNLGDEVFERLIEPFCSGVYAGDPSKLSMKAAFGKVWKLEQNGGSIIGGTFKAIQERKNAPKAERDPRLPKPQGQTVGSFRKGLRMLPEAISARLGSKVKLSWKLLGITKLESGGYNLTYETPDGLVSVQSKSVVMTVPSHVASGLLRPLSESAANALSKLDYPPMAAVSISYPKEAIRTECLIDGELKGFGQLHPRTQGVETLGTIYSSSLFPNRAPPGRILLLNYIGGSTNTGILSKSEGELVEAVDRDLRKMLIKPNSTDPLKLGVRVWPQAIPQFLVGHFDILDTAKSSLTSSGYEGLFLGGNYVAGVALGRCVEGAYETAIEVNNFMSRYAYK
Method: (§1) A pET24 plasmid containing a DNA sequence encoding each identified variant mutant of AtPPO1 derived from Arabidopsis thaliana, codon-optimised for expression in E. coli, and under control of a T7 promoter, was synthesised by Twist Bioscience. This plasmid was expressed in E. coli BL21 (DE3) hemG with 50 μg/mL kanamycin and 25 μg/mL chloramphenicol selection. Overnight cultures grown at 37° C. were used to inoculate 150 ml AIM (AIM-Terrific Broth Base including Trace elements, Formedium) in 500 ml shake flasks at a ratio of 1:100. Cultures were grown at 37° C., 200 rpm for 3 hours and then overnight at 26° C. Cells were harvested by 4° C. centrifugation for 20 minutes at 600 rpm. Cells were stored at −80° C. until extraction. 0.5-1 g of cell pellet from was thawed and resuspended in ratio of 1:1 in lysis buffer (20 mM Tris pH8, 500 mM sodium chloride, 10% glycerol, 1× complete Protease EDTA-free Inhibitor Tablet (Roche)). The resuspension was sonicated at 50% using 10-20 cycles of 10 seconds, 20 seconds off. After sonication Triton X-100 was added to the lysates at a final concentration of 0.5%. The lysates were centrifuged at 13.00 rpm for 10 min at 4° C. The crude extracts (i.e, supernatants) were stored at −80° C. Protein concentration was measured and calculated using the absorbance at 280 nm. Extracts were diluted 1 in 4 and 10 uL was analysed by SDS PAGE.
(§2) Variant crude extracts were assayed in a fluorescent Protoporphyrinogen Oxidase assay in black 384 well plates with a clear bottom. The total volume of the reaction mixture was 100 ul and contained 100 mM K2HPO4 pH7.2, 1 mM Na2EDTA, 5 mM DTT, 20% glycerol (v/v), 0.025% Tween 20 (v/v). Reactions were started with addition of 1 uM protoporphyrinogen IX final assay concentration. Fluorescence was monitored over 30 min using a Tecan plate reader with an excitation wavelength of 405 nm, emission wavelength of 635 nm, gain of 90 and 15 flashes. 10 ul of 3-fold serial dilution of crude extract in 100 mM K2HPO4 pH7.2, 1 mM Na2EDTA, 5 mM DTT, 20% glycerol (v/v), 0.05% Tween 20 (v/v) was tested in the assay against 1% DMSO and 100 ppm herbicide B to determine the correct amount of crude extract to add to the assay to observe activity. 10 ul of the appropriate crude extract dilution was then tested in the fluorescent Protoporphyrinogen Oxidase assay against DMSO and 10-fold dose response of each compound (herbicides A to E) with a top rate of 100 ppm.
(§3) The percentage inhibition was calculated as the activity in the presence of one of four concentrations of each herbicide compound A to E (note that the compounds labelled as A to E are identified hereinabove in the relevant section of the description) as a percentage of the enzyme activity in DMSO (Table 5).

[2] = molecular target: T2, AtPPO1 Y361D V365L (SEQ ID NO.135) (Arabidopsis thaliana, UniProt P55826, V365L/Y361D); experiment: as above; type: biochemical; conditions: for improvement over SEQ ID NO:124: AtPPO1 Y361D V365L (SEQ ID NO:135) vs SEQ ID NO:124; for inhibition at 0.1 ppm / inhibition at 1 ppm / inhibition at 10 ppm / inhibition at 100 ppm: read-out: percentage inhibition
T2 construct: made in house; host or cells: E. coli BL21 (DE3) hemG, crude extract
T2 sequence (P55826 35-537 Y361D/V365L): T1 sequence (P55826 35-537 S305L/Y361D/V365M) with L271S, M331L
Method: as §1, §2, §3

| Structure (SMILES) | inhibition at 0.1 ppm [1] [%] | inhibition at 1 ppm [1] [%] | inhibition at 10 ppm [1] [%] | inhibition at 100 ppm [1] [%] | improvement over SEQ ID NO:124 [2] | inhibition at 0.1 ppm [2] [%] | inhibition at 1 ppm [2] [%] | inhibition at 10 ppm [2] [%] | inhibition at 100 ppm [2] [%] |
| --- | --- | --- | --- | --- | --- | --- | --- | --- | --- |
| CCOC(=O)[C@]1(C)CC(c2cc(-n3c(=O)n(C)c(=S)n(C)c3=O)c(F)cc2Cl)=NO1 [Herbicide D, ethyl (5S)-3-[2-chloro-5-(3,5-dimethyl-2,6-dioxo-4-thioxo-1,3,5-triazinan-1-yl)-4-fluoro-phenyl]-5-methyl-4H-isoxazole-5-carboxylate] | 37 | 87 | 99 | 100 | improvement over SEQ ID NO:124 was seen | 2 | 63 | 93 | 100 |
| CCOC(=O)C1(C)CC(c2cc(-n3c(=O)cc(C(F)(F)F)n(C)c3=O)c(F)cc2Cl)=NO1 (centres unmarked) [Herbicide C, 3-(2-chloro-4-fluoro-5-(3-methyl-2,6-dioxo-4-trifluoromethyl-3,6-dihydropyrimidin-1(2H)-yl)phenyl)-5-methyl-4,5-dihydroisoxazole-5-carboxylic acid ethyl ester] | 30 | 56 | 92 | 100 | improvement over SEQ ID NO:124 was seen | 30 | 84 | 94 | 100 |
| CCOC(=O)COc1ncccc1Oc1cc(-n2c(=O)cc(C(F)(F)F)n(C)c2=O)c(F)cc1Cl [Herbicide A, epyrifenacil] | 9 | 53 | 84 | 100 |  | 56 | 89 | 99 | 96 |
| C#CCN1C(=O)C(F)(F)Oc2cc(F)c(-n3c(=O)n(C)c(=S)n(C)c3=O)cc21 [Herbicide B, trifludimoxazin] | 96 | 100 | 100 | 100 | improvement over SEQ ID NO:124 was seen | 82 | 100 | 100 | 100 |
| CC(C)N(C)S(=O)(=O)NC(=O)c1cc(-n2c(=O)cc(C(F)(F)F)n(C)c2=O)c(F)cc1Cl [Herbicide E, saflufenacil] | 0 | 10 | 76 | 88 | improvement over SEQ ID NO:124 was seen | 0 | 31 | 83 | 100 |

Source: patent US20260297542A1, “HERBICIDE RESISTANT PLANTS” (SYNGENTA CROP PROTECTION AG, priority 2023, published 2026)
